Structures are written as SMILES. Structures can show the parent of a compound that is named as a salt. Where two headings read alike, the source gives them in different places.

Data set [1] concerns Newcastle disease virus (NDV) Miyadera strain. In kind it is cell-based.
The subject of data set [2] is Influenza virus A-O/PR-8 strain. In kind it is cell-based.
Data set [3] is described as follows: in vitro. The following applies: human, hela s3 cells.
In a further data set the test system is Herpes virus. In kind it is cell-based.
Data set [4] can be described thus: in vitro. The following applies: rainbow trout, rtg-2 cells.
For data set [5], the system named is Vaccinia virus Lister strain. In kind it is cell-based.
The subject of data set [6] is Vesicular stomatitis virus (VSV). In kind it is cell-based.
Data set [7] has as its system Infectious pancrease necrosis virus (IPNV). In kind it is cell-based.
Data set [8] has as its system Newcastle disease virus Komarov strain. In kind it is in vivo, embryonated chick egg. The following applies: for MDT (difference from control): Komarov strain, 104 hours incubation.
Data set [9] deals with Newcastle disease virus Sato strain. In kind it is in vivo, embryonated chick egg. The following applies: for MDT (difference from control): Sato strain, 104 hours incubation.
Data set [10] relates to Newcastle disease virus I(1) strain. In kind it is in vivo, embryonated chick egg. The following applies: 104 hours incubation.
The test system of data set [11] is Newcastle disease virus Miyadera strain. In kind it is in vivo, embryonated chick egg. The following applies: for MDT (difference from control): Miyadera strain, 104 hours incubation.
For data set [12], the system named is Influenza virus A0 /PR-8 strain. In kind it is in vivo, mice of the ICR strain. The following applies: intraperitoneal, twice a day for 3 days, mouse lung at 72 hours.
The subject of data set [13] is vaccinia virus Lister strain. In kind it is in vivo, mice of the ICR strain. The following applies: subcutaneous, 4 times first day, twice a day days 2-5, 10th day.
The test system of a further data set is mice. The following applies: mouse, in vivo, ip.
The mark [14] stands for this setting: HeLa S3 cell, 37° C., 5-7 days, at MDC, 1/2 or 1/4 MDC, vs control.
The mark [15] stands for this setting: Vero cell, 37° C., 5-7 days, at MDC, 1/2 or 1/4 MDC, vs control.
The mark [16] stands for this setting: L-929 cell, 37° C., 5-7 days, at MDC, 1/2 or 1/4 MDC, vs control.

Regarding `NC(CCP(=O)(O)O)C(=O)O` (racemic) [DL-phosphonoethyl glycine], in [1], the “Difference of -log TCID50 /ml, NDV” value came out at 1.50. Further, the “Difference of -log TCID50 /ml, Influenza virus” value in data set [2] is recorded as 1.00. Besides, the MCC is 250 µg/mL in the data set “in vitro [3]” and 4000 µg/mL in “in vitro [4]”. Further, the “Difference of -log TCID50 /ml, Herpes virus” value with Herpes virus (Hep No. 2 cell, 37° C., 5-7 days, at MDC, 1/2 or 1/4 MDC, vs control) turned out to be 0.50. Further, the “Difference of -log TCID50 /ml, Vaccinia virus” value in data set [5] came out at 1.17. In addition, in data set [6], the “Difference of -log TCID50 /ml, VSV” value is on record as 0.50. In [7], the “Difference of -log TCID50 /ml, IPNV” value is on record as 1.30.

For `NC[C@H](N)C(=O)O` [L-Aminomethyl glycine hydrochloride], the “Difference of -log TCID50 /ml, NDV” value in data set [1] (setting [14]) turned out to be 1.50. Besides, the “Difference of -log TCID50 /ml, Influenza virus” value in data set [2] (setting [15]) worked out at 1.00. In addition, the MCC in “in vitro [3]” is above 1000 µg/mL; in the data set “in vitro [4]”, 4000 µg/mL. For the same compound, the “Difference of -log TCID50 /ml, Herpes virus” value in the data set with Herpes virus was above 2.50. In addition, in [5] (setting [14]), the “Difference of -log TCID50 /ml, Vaccinia virus” value is 0.33. For the same compound, the “Difference of -log TCID50 /ml, VSV” value in data set [6] (setting [16]) stood at 0.67.

Regarding `NC(=O)NC[C@H](N)C(=O)O` [L-Ureidomethyl glycine], the “MDT (difference from control)” value in data set [8] (500 mg per egg) was above 13.8; in [8] (1,000 mg per egg), above 29.8; in data set [9] (500 mg per egg), -6.4; in [9] (1,000 mg per egg) it was above 4.6; in data set [10] (500 mg per egg) it was above 5.2; in data set [10] (1,000 mg per egg), -1.6. Further, the figures for the “MDT (difference from control)” value in [11] (500 mg per egg) and in [11] (1,000 mg per egg) were 3.2 and -6.4, respectively. Besides, the “Δlog MLD” value in [11] (in vivo) is 0.

Take `Cl.NC12CC3CC(CC(C3)C1)C2` [1-Adamantanamine hydrochloride, reference compound]: the “Difference of -log TCID50 /ml, Influenza virus” value in data set [2] (setting [15]) is reported as above 2.00. The MCC in the data set “in vitro [3]” came to 250 µg/mL; in the data set “in vitro [4]”, 31.2 µg/mL. Moreover, the “Per cent of Inhibition (virus multiplication, HA units)” value (“Per cent of Inhibition” for short) in data set [12] (100 mg/kg) was 76%. The “Difference of -log TCID50 /ml, IPNV” value in [7] is listed as 2.75.

Regarding `NCC(N)C(=O)O` (racemic) [DL-Aminomethyl glycine hydrochloride], in [1] (setting [14]), the “Difference of -log TCID50 /ml, NDV” value stood at 1.50. The “Difference of -log TCID50 /ml, Influenza virus” value in [2] (setting [15]) is recorded as 1.00. The MCC in “in vitro [3]” was above 1000 µg/mL; in the data set “in vitro [4]”, 3000 µg/mL. Besides, the “Difference of -log TCID50 /ml, Herpes virus” value in the data set with Herpes virus is given as above 2.50. Further, in data set [5] (setting [14]), the “Difference of -log TCID50 /ml, Vaccinia virus” value is 0.17. Moreover, in data set [6] (setting [16]), the “Difference of -log TCID50 /ml, VSV” value is given as 0.33.

On to `O=C(O)C1NC2CC21` [L-3,5-Cyclo-2-pyrrolidylcarboxylic acid], for which the “Difference of -log TCID50 /ml, NDV” value in [1] (setting [14]) is given as 0.17. Further, the “Difference of -log TCID50 /ml, Influenza virus” value in data set [2] (setting [15]) is recorded as 2.00. The results for the MCC in the data set “in vitro [3]” and in the data set “in vitro [4]” were above 1000 µg/mL and 1000 µg/mL, respectively. Besides, the “Difference of -log TCID50 /ml, IPNV” value in data set [7] turned out to be 3.50.

Regarding `NC(Cc1ccc(F)cc1)C(=O)O` (racemic) [DL-p-fluoro-phenyl alanine, reference compound], in [1] (setting [14]), the “Difference of -log TCID50 /ml, NDV” value was 1.17. Besides, the “Difference of -log TCID50 /ml, Influenza virus” value in data set [2] (setting [15]) worked out at 0. For the same compound, the MCC amounted to 125 µg/mL in “in vitro [3]” and 250 µg/mL in “in vitro [4]”. Moreover, in [6] (setting [16]), the “Difference of -log TCID50 /ml, VSV” value turned out to be 1.00. Moreover, in data set [7], the “Difference of -log TCID50 /ml, IPNV” value was 0.

As for `NC(=O)NO` [Hydroxyurea, reference compound], in [13] (50 mg/kg), the “Percent of inhibition of pock” value was found to be 42.8%.

Turning to `O=C1O[C@H]([C@@H](O)CO)C(O)=C1O` [L-Ascorbic acid, reference compound], the “Difference of -log TCID50 /ml, NDV” value in [1] (setting [14]) is given as 0.83. Further, the “Difference of -log TCID50 /ml, Influenza virus” value in [2] (setting [15]) came to 0. For the same compound, the MCC in “in vitro [3]” was 125 µg/mL; in the data set “in vitro [4]”, 2000 µg/mL. The “Difference of -log TCID50 /ml, VSV” value in data set [6] (setting [16]) came out at 1.00.

In the case of `NC(Cc1ccc(O)cn1)C(=O)O` (racemic) [DL-p-Hydroxypyridylmethyl glycine], the “Difference of -log TCID50 /ml, NDV” value in data set [1] (setting [14]) is given as above 3.00. Besides, the “Difference of -log TCID50 /ml, Influenza virus” value in [2] (setting [15]) amounted to 0.50. Further, the MCC was above 1000 µg/mL in “in vitro [3]” and 1000 µg/mL in the data set “in vitro [4]”. Further, the “Difference of -log TCID50 /ml, VSV” value in data set [6] (setting [16]) is on record as above 2.83. Also, the “Difference of -log TCID50 /ml, IPNV” value in data set [7] turned out to be 3.50.

Regarding `NC(=O)NC[C@H](N)C(=O)O` [L-Ureidomethyl glycine hydrochloride], the “Difference of -log TCID50 /ml, NDV” value in data set [1] (setting [14]) is above 4.00. Also, the MCC is above 1000 µg/mL in the data set “in vitro [3]” and 4000 µg/mL in “in vitro [4]”. The “Difference of -log TCID50 /ml, Herpes virus” value in the data set with Herpes virus stood at 1.50. For the same compound, the “Difference of -log TCID50 /ml, Vaccinia virus” value in data set [5] (setting [14]) is listed as 1.17. Besides, the “Difference of -log TCID50 /ml, VSV” value in [6] (setting [16]) turned out to be 0.33. Also, the “Difference of -log TCID50 /ml, IPNV” value in [7] was 3.75.

Take `COC(=O)[C@@H](N)Cc1ccc(O)cn1` [L-p-Hydroxypyridylmethyl glycine methylester hydrochloride]: the “Difference of -log TCID50 /ml, NDV” value in data set [1] (setting [14]) is recorded as 2.00. In addition, the “Difference of -log TCID50 /ml, Influenza virus” value in [2] (setting [15]) is given as 1.00. For the same compound, the figures for the MCC in “in vitro [3]” and in “in vitro [4]” were 1000 µg/mL and 1500 µg/mL, respectively. Further, the “Acute toxicity LD0” value in the data set on mice is above 1000 mg/kg. In addition, the “Difference of -log TCID50 /ml, IPNV” value in data set [7] amounted to 3.75.

With `NC(=O)NCC(N)C(=O)O` (racemic) [DL-Ureidomethyl glycine], the “Difference of -log TCID50 /ml, NDV” value in [1] (setting [14]) came to 1.17. The MCC was above 1000 µg/mL in “in vitro [3]” and 2000 µg/mL in the data set “in vitro [4]”. Besides, in [7], the “Difference of -log TCID50 /ml, IPNV” value is recorded as 3.50.

In the case of `CP(=O)(O)CC[C@H](N)C(=O)O` [L-methylphosphinoethyl glycine, L-Methylphosphinoethyl glycine], the “MDT (difference from control)” value was above 4.8 in data set [8] (250 mg per egg); above 27.8 in data set [8] (500 mg per egg); above 30.6 in [9] (250 mg per egg); above 95.6 in [9] (500 mg per egg); above 23.2 in data set [10] (250 mg per egg); 4.8 in data set [10] (500 mg per egg). In addition, the “MDT (difference from control)” value in data set [11] (250 mg per egg) is 2.4; in data set [11] (500 mg per egg), above 45.6. In data set [12] (50 mg/kg), the “Per cent of Inhibition” value came to 67%.

On to `N[C@@H](Cc1ccc(O)cn1)C(=O)O`, for which the “Difference of -log TCID50 /ml, NDV” value in [1] (setting [14]) is above 4.00. Also, the “Difference of -log TCID50 /ml, Influenza virus” value in data set [2] (setting [15]) worked out at 1.00. Also, the MCC in “in vitro [3]” and in the data set “in vitro [4]” was 500 µg/mL throughout. Further, the “Difference of -log TCID50 /ml, Herpes virus” value with Herpes virus is recorded as above 2.50. Besides, the “MDT (difference from control)” value in data set [8] (500 mg per egg) is given as 3.2; in data set [8] (1,000 mg per egg) it was 0; in [9] (500 mg per egg), above 12.1; in data set [9] (1,000 mg per egg), above 19.2; in [10] (500 mg per egg) it was above 80.4; in [10] (1,000 mg per egg) it was above 16.8. For the same compound, the “MDT (difference from control)” value in [11] (500 mg per egg) is given as -3.1; in [11] (1,000 mg per egg) it was 14.8. Besides, the figures for the “Δlog MLD” value in [8] (in vivo) and in [9] (in vivo) were 1.0 and 0.5, respectively. In addition, the “Per cent of Inhibition” value in [12] (50 mg/kg) worked out at 52%; in data set [12] (100 mg/kg), 77%. Moreover, the “Difference of -log TCID50 /ml, Vaccinia virus” value in data set [5] (setting [14]) was above 1.97. Besides, the “Percent of inhibition of pock” value in data set [13] (6.2 mg/kg) is given as 56.9%. Besides, in the data set on mice, the “Acute toxicity LD0” value was above 1000 mg/kg. The “Difference of -log TCID50 /ml, IPNV” value in data set [7] worked out at 3.75.
